From PMC8900816, “High-resolution structures of the bound effectors avadomide (CC-122) and iberdomide (CC-220) highlight advantages and limitations of the MsCI4 soaking system” (Acta Crystallographica. Section D, Structural Biology, 2022) come the findings set out here.

The target in this assay is T1, MsCI4 (Magnetospirillum gryphiswaldense, UniProt A4TVL0).
T1 construct: gene MGR_0879; wild-type single-domain bacterial cereblon homologue; pETHis1a, E. coli C41(DE3); His tag removed with TEV; three monomers per asymmetric unit; structural zinc; RED-NHS amine-labelled for MST
T1 sequence (A4TVL0 1-124): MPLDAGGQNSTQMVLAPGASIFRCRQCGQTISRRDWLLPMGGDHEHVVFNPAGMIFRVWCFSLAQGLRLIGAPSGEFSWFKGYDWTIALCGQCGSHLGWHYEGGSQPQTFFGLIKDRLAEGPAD
Description: labelled microscale thermophoresis. Type of assay: binding. Particulars: read-out: MsCI4 (K d, μM) / Labelled MST.

Regarding `Cc1nc2cccc(N)c2c(=O)n1[C@H]1CCC(=O)NC1=O` [Avadomide], the Kd came to 4.84 ± 0.3 µM.

In the case of `O=C1CC[C@H](N2Cc3c(OCc4ccc(CN5CCOCC5)cc4)cccc3C2=O)C(=O)N1` [Iberdomide], the Kd is 0.409 ± 0.03 µM.
